As a reminder, the IC50 is the point on the concentration scale where inhibition reaches its midpoint.

Drawing on US20130303532A1, “IMIDAZOPYRAZINES FOR USE AS MPS-1 AND TKK INHIBITORS IN THE TREATMENT HYPERPROLIFERATIVE DISORDERS” (BAYER INTELLECTUAL PROPERTY GmbH, priority 2010, published 2013), this text covers IC50 for 27 molecules.

SMILES strings stand for the structures.

The first experiment has as its target T1, human kinase Mps-1 (Homo sapiens, UniProt P33981).
T1 construct: N-terminally GST-tagged human full length recombinant Mps-1 kinase; GST (N); purchased Invitrogen, Karslruhe, Germany PV4071
T1 sequence (P33981 1-857): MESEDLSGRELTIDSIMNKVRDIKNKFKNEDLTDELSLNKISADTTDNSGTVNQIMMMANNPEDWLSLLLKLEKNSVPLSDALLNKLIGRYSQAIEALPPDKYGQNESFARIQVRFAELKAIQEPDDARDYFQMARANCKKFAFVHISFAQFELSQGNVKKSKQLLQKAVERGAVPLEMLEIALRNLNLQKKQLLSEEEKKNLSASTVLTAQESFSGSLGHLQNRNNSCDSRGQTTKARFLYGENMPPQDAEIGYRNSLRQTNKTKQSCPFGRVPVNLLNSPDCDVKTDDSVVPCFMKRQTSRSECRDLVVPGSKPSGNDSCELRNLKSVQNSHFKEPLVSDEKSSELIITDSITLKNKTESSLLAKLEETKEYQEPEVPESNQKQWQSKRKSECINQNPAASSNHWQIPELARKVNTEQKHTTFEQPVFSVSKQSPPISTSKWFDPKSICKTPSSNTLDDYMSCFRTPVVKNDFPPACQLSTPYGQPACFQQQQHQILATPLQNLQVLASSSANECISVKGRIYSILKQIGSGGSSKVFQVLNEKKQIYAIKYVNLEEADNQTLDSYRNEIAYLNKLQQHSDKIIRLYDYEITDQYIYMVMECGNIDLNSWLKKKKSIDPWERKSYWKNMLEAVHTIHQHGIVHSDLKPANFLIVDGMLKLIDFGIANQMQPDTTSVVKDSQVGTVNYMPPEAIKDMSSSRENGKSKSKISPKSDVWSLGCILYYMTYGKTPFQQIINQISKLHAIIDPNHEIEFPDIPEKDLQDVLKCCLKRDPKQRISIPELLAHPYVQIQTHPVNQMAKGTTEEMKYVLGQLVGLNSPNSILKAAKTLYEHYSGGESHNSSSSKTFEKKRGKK
The experiment is described as follows: Mps-1 kinase assay (TR-FRET). Type of experiment: biochemical. The conditions noted are these: Mps1 IC50 [nM], N-terminally GST-tagged human full length recombinant Mps-1; 10 μM ATP; 1 μM biotinylated peptide substrate; 60 min at 22° C. Background: Time-resolved FRET reads energy transfer from a long-lived donor to a nearby acceptor.
Regarding `O=C(NC1CC1)c1ccc(-c2cnc3c(NCCCN4CCOCC4)nccn23)cc1O` [Example 7-71, N-cyclopropyl-2-hydroxy-4-(8-{[3-(morpholin-4-yl)propyl]amino}imi-dazo[1,2-a]pyrazin-3-yl)benzamide], the IC50 was 304 nM.
Turning to `Cc1cc(-c2cnc3c(NCCCCO)nccn23)ccc1C(=O)NC1CC1` [Example 7-99, N-cyclopropyl-4-{8-[(4-hydroxybutyl)amino]imi-dazo[1,2-a]pyrazin-3-yl}-2-methylbenzamide], the IC50 worked out at 70.8 nM.
Consider `N#CCCNc1nccn2c(-c3ccc(C(=O)NC4CC4)c(Cl)c3)cnc12` [Example 7-52, 2-chloro-4-{8-[(2-cyanoethyl)amino]imi-dazo[1,2-a]pyrazin-3-yl}-N-cyclopropylbenzamide], for which the IC50 came to 272 nM.
Still for that read-out and setting: to `O=C(NC1CC1)c1ccc(-c2cnc3c(NCCCN4CCCC4=O)nccn23)cc1O` [Example 7-73, N-cyclopropyl-2-hydroxy-4-(8-{[3-(2-oxopyrrolidin-1-yl)propyl]amino}imi-dazo[1,2-a]pyrazin-3-yl)benzamide] belongs 593 nM; to `O=C(NC1CC1)c1ccc(-c2cnc3c(NCc4ccc(Cl)s4)nccn23)cc1Cl` [Example 7-65, 2-chloro-4-(8-{[(5-chlorothiophen-2-yl)methyl]amino}imi-dazo[1,2-a]pyrazin-3-yl)-N-cyclopropylbenzamide], 25 nM.
In the case of `CC(C)CNc1nccn2c(-c3ccc(C(=O)NC4CC4)c(F)c3)cnc12` [Example 1-4, N-cyclopropyl-2-fluoro-4-{8-[(2-methylpropyl)amino]imi-dazo[1,2-a]pyrazin-3-yl}benzamide], the IC50 was 34 nM.
Regarding `O=C(NC1CC1)c1ccc(-c2cnc3c(NC[C@@H](O)CO)nccn23)cc1Cl` [Example 7-68, 2-chloro-N-cyclopropyl-4-{8-[(2,3-dihydroxypropyl)amino]imi-dazo[1,2-a]pyrazin-3-yl}benzamide], the IC50 worked out at 1720 nM.
On the same count and under the same terms, to `Cc1cc(-c2cnc3c(NCc4ccc(F)cc4)nccn23)ccc1C(=O)NC1CC1` [Example 7-98, N-cyclopropyl-4-{8-[(4-fluorobenzyl)amino]imi-dazo[1,2-a]pyrazin-3-yl}-2-methylbenzamide] belongs 39.6 nM; to `Cc1cc(-c2cnc3c(NCc4ccncc4)nccn23)ccc1C(=O)NC1CC1` [Example 7-109, N-cyclopropyl-2-methyl-4-{8-[(pyridin-4-ylmethyl)amino]imi-dazo[1,2-a]pyrazin-3-yl}benzamide], 166 nM.
Same read-out and setting: the same measure for `CCOC(C)CNc1nccn2c(-c3ccc(C(=O)NC4CC4)c(Cl)c3)cnc12` (stereo not drawn) [Example 7-63, 2-chloro-N-cyclopropyl-4-{8-[(2-ethoxypropyl)amino]imi-dazo[1,2-a]pyrazin-3-yl}benzamide]: 409 nM.
Still for that read-out and setting: to `CCOC(C)CNc1nccn2c(-c3ccc(C(=O)NC4CC4)c(C)c3)cnc12` (stereo not drawn) [Example 7-121, N-cyclopropyl-4-{8-[(2-ethoxypropyl)amino]imi-dazo[1,2-a]pyrazin-3-yl}-2-methylbenzamide] belongs 154 nM.
Turning to `O=C(NC1CC1)c1ccc(-c2cnc3c(NCC(F)F)nccn23)cc1Cl` [Example 7-59, 2-chloro-N-cyclopropyl-4-{8-[(2,2-difluoroethyl)amino]imi-dazo[1,2-a]pyrazin-3-yl}benzamide], the IC50 was 239 nM.
As for `Cc1cc(-c2cnc3c(NCc4ccn[nH]4)nccn23)ccc1C(=O)NC1CC1` [Example 5-3, N-cyclopropyl-2-methyl-4-{8-[(1H-pyrazol-5-ylmethyl)amino]imi-dazo[1,2-a]pyrazin-3-yl}benzamide], the IC50 worked out at 86.7 nM.
On the same count and under the same terms, to `O=C(NC1CC1)c1ccc(-c2cnc3c(NCc4ccc(F)cc4)nccn23)cc1Cl` [Example 7-38, 2-chloro-N-cyclopropyl-4-{8-[(4-fluorobenzyl)amino]imi-dazo[1,2-a]pyrazin-3-yl}benzamide] belongs 112 nM; to `Cc1cc(-c2cnc3c(NCc4cnn(C)c4)nccn23)ccc1C(=O)NC1CC1` [Example 7-120, N-cyclopropyl-2-methyl-4-(8-{[(1-methyl-1H-pyrazol-4-yl)methyl]amino}imi-dazo[1,2-a]pyrazin-3-yl)benzamide], 93.4 nM.
The same measure, in the same setting: to `O=C(NC1CC1)c1ccc(-c2cnc3c(NCc4ccccc4F)nccn23)cc1` [Example 4-3, N-cyclopropyl-4-{8-[(2-fluorobenzyl)amino]imi-dazo[1,2-a]pyrazin-3-yl}benzamide] belongs 11 nM; to `Cc1cc(-c2cnc3c(NCC(F)F)nccn23)ccc1C(=O)NC1CC1` [Example 7-118, N-cyclopropyl-4-{8-[(2,2-difluoroethyl)amino]imi-dazo[1,2-a]pyrazin-3-yl}-2-methylbenzamide], 70.3 nM.
Still for that read-out and setting: the same measure for `O=C(NC1CC1)c1ccc(-c2cnc3c(NCCCN4CCCC4=O)nccn23)cc1` [Example 7-28, N-cyclopropyl-4-(8-{[3-(2-oxopyrrolidin-1-yl)propyl]amino}imi-dazo[1,2-a]pyrazin-3-yl)benzamide]: 1270 nM.

Still in this experiment, the particulars now being: N-terminally GST-tagged human full length recombinant Mps-1; 10 μM ATP; 1 μM biotinylated peptide substrate; 60 min at 22° C.; read-out: Mps1 IC50.
Turning to `CC(C)(O)CNc1nccn2c(-c3ccc(C(=O)NC4CC4)cc3)cnc12` [Example 3-2, N-cyclopropyl-4-{8-[(2-hydroxy-2-methylpropyl)amino]imidazo[1,2-a]pyrazin-3-yl}benzamide], the IC50 is 92.7 nM.
For `O=C(NC1CC1)c1ccc(-c2cnc3c(NCCN4CCOCC4)nccn23)cc1` [Example 7-4, N-cyclopropyl-4-(8-{[2-(morpholin-4-yl)ethyl]amino}imidazo[1,2-a]pyrazin-3-yl)benzamide], the IC50 was 341 nM.
Still for that read-out and setting: the same measure for `Cc1cc(-c2cnc3c(NCc4ccccc4)nccn23)ccc1C(=O)NC1CC1` [Example 7-101, 4-[8-(benzylamino)imidazo[1,2-a]pyrazin-3-yl]-N-cyclopropyl-2-methylbenzamide]: 34.1 nM; for `CCNc1nccn2c(-c3ccc(C(=O)NC4CC4)c(O)c3)cnc12` [Example 7-77, N-cyclopropyl-4-[8-(ethylamino)imidazo[1,2-a]pyrazin-3-yl]-2-hydroxybenzamide]: 63.1 nM; for `CCCCNc1nccn2c(-c3ccc(C(=O)NC4CC4)c(Cl)c3)cnc12` [Example 7-44, 4-[8-(butylamino)imidazo[1,2-a]pyrazin-3-yl]-2-chloro-N-cyclopropylbenzamide]: 54.2 nM.
On the same count and under the same terms, the same measure for `NCCCNc1nccn2c(-c3ccc(C(=O)NC4CC4)c(Cl)c3)cnc12` [Example 3-3, 4-{8-[(3-Aminopropyl)amino]imidazo[1,2-a]pyrazin-3-yl}-2-chloro-N-cyclopropylbenzamide]: 2500 nM; for `Cc1cc(-c2cnc3c(NCC4CC4)nccn23)ccc1C(=O)NC1CC1` [Example 7-107, N-cyclopropyl-4-{8-[(cyclopropylmethyl)ami-no]imidazo[1,2-a]pyrazin-3-yl}-2-methylbenzamide]: 18.8 nM; for `O=C(NC1CC1)c1ccc(-c2cnc3c(NCCc4cccnc4)nccn23)cc1` [Example 7-23, N-cyclopropyl-4-(8-{[2-(pyridin-3-yl)ethyl]amino}imidazo[1,2-a]pyrazin-3-yl)benzamide]: 244 nM.
For the molecule `CN(C)CCNc1nccn2c(-c3ccc(C(=O)NC4CC4)cc3)cnc12` [Example 7-7, N-cyclopropyl-4-(8-{[2-(dimethylamino)ethyl]ami-no}imidazo[1,2-a]pyrazin-3-yl)benzamide], the IC50 came to 4050 nM.
